Test results: ChEMBL document CHEMBL1144430, “Convergent synthesis and pharmacology of substituted tetrazolyl-2-amino-3-(3-hydroxy-5-methyl-4-isoxazolyl)propionic acid analogues” (J Med Chem, 2005)

Key:
Glutamate receptor 4 = Glutamate receptor 4 (Homo sapiens, UniProt P48058); test: Binding affinity for ionotropic Glutamate receptor AMPA 4 expressed in Sf9 cells
[1] = biological target: Glutamate receptor ionotropic, kainate; test: Displacement of [3H]KA from glutamate receptor of rat brain synaptosomes; assay type: subcellular
Glutamate NMDA receptor = test: Displacement of [3H]-CGP- 39653 from N-methyl-D-aspartate glutamate receptor of rat brain synaptosomes; assay type: subcellular
[2] = biological target: Glutamate receptor ionotropic, kainate 2 (Homo sapiens, UniProt Q13002); test: Binding affinity for kainate Glutamate receptor GluR6 expressed in Sf9 cells
Glutamate receptor 2 = Glutamate receptor 2 (Homo sapiens, UniProt P42262); test: Binding affinity for ionotropic Glutamate receptor AMPA 2 expressed in Sf9 cells
[3] = biological target: Glutamate receptor ionotropic, kainate 1 (Homo sapiens, UniProt P39086); test: Binding affinity for kainate Glutamate receptor GluR5 expressed in Sf9 cells
[4] = In vitro activity at Ionotropic glutamate receptor using cortical wedge assays
Glutamate receptor 1 = Glutamate receptor 1 (Homo sapiens, UniProt P42261); test: Binding affinity for ionotropic Glutamate receptor AMPA 1 expressed in Sf9 cells
[5] = biological target: Glutamate receptor ionotropic, AMPA (Rattus norvegicus, UniProt P19490+P19491+P19492+P19493); test: Displacement of [3H]AMPA from Ionotropic glutamate receptor of in rat brain synaptosomes; assay type: subcellular
Glutamate receptor 3 = Glutamate receptor 3 (Homo sapiens, UniProt P42263); test: Binding affinity for ionotropic Glutamate receptor AMPA 3 expressed in Sf9 cells
Glutamate receptor 3, sequence (P42263 whole entry): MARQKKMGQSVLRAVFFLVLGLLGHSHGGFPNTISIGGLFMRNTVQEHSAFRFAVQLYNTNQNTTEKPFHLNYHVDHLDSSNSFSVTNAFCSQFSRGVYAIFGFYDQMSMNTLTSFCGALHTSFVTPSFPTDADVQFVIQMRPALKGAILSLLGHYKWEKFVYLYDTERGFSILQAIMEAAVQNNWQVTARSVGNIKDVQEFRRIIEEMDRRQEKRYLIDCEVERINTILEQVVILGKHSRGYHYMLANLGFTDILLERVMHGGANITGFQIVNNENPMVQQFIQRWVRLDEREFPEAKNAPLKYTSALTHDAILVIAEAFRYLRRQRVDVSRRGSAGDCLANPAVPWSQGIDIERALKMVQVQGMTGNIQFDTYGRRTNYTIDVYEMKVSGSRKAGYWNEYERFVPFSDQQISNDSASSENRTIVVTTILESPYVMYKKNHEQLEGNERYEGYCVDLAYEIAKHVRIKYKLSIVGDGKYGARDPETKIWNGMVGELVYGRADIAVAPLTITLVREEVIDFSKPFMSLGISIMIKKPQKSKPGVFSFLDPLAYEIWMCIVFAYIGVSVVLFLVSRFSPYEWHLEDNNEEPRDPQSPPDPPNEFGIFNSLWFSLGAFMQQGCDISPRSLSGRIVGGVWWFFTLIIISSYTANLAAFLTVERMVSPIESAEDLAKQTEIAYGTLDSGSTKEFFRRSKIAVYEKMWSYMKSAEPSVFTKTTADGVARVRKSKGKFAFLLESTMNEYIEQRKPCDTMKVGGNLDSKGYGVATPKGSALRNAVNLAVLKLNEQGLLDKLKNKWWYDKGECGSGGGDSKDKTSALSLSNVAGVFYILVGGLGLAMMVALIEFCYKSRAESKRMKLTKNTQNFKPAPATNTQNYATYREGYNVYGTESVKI

Glutamate receptor ionotropic, kainate 2, sequence (Q13002 whole entry): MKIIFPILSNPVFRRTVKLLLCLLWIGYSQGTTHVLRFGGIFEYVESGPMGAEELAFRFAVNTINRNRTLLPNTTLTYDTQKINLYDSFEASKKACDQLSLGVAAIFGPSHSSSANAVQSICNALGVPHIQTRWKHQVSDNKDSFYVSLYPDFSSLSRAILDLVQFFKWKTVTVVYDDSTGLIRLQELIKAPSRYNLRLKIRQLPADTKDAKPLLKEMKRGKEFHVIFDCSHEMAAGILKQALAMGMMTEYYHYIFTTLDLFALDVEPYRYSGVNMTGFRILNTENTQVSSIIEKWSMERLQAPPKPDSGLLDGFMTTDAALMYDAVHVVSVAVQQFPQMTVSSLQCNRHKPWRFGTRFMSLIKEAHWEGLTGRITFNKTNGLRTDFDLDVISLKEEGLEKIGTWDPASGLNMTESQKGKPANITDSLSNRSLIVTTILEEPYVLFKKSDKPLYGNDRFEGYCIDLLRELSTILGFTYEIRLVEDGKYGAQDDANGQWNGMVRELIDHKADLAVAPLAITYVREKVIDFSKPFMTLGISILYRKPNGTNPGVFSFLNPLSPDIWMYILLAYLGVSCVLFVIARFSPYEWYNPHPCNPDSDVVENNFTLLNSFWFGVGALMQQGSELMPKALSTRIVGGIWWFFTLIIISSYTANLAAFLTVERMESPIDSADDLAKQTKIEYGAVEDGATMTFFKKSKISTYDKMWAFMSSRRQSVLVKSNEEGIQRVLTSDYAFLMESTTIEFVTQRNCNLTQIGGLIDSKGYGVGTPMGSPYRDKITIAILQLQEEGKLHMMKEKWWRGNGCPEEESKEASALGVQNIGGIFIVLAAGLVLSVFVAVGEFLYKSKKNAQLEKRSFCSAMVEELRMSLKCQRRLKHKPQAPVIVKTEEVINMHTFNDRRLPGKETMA
Glutamate receptor 1, sequence (P42261 whole entry): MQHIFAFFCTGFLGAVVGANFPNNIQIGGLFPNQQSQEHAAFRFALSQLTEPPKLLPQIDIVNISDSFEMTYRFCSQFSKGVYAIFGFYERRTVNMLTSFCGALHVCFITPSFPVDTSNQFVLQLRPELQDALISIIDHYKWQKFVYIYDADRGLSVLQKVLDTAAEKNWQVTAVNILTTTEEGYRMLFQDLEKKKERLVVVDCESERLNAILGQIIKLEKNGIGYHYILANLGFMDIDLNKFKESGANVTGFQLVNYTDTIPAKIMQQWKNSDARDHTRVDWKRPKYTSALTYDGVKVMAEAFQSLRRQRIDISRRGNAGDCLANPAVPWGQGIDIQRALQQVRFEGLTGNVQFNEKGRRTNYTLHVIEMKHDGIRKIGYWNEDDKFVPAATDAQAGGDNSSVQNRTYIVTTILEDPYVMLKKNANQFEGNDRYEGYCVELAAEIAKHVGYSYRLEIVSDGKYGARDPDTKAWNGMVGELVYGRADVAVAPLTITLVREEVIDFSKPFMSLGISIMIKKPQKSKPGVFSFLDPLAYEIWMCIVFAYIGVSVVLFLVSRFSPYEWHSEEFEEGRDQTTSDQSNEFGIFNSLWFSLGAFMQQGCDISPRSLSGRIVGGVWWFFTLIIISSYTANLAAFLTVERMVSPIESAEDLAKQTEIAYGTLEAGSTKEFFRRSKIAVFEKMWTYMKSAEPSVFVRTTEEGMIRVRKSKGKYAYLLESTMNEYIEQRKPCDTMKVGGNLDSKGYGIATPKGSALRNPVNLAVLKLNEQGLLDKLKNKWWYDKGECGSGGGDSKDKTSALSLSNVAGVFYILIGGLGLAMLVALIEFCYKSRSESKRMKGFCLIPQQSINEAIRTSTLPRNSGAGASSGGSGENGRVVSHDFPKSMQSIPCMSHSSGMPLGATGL
Glutamate receptor 2, sequence (P42262 whole entry): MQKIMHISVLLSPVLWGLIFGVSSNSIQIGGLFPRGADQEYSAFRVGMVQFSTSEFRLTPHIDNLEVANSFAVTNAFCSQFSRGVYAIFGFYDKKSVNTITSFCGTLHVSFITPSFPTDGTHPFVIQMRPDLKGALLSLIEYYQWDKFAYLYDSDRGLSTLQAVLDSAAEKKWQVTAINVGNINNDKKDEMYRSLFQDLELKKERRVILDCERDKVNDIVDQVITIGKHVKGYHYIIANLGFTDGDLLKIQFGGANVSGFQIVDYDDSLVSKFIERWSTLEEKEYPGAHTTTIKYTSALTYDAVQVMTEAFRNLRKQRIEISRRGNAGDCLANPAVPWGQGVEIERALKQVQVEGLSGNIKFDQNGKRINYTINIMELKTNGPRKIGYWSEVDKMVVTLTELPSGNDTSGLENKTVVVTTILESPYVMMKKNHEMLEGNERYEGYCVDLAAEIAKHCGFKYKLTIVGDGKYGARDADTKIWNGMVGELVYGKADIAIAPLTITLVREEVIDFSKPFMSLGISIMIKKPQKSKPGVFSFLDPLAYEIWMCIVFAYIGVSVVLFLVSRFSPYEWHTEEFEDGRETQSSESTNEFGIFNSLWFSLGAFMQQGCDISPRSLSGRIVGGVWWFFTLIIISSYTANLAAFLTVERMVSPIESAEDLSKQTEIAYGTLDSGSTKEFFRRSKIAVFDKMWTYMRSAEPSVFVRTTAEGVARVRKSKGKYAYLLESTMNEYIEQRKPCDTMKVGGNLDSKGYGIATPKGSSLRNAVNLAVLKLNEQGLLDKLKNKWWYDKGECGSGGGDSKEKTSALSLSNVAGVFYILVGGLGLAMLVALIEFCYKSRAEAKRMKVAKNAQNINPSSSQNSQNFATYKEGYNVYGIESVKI
Glutamate receptor 4, sequence (P48058 whole entry): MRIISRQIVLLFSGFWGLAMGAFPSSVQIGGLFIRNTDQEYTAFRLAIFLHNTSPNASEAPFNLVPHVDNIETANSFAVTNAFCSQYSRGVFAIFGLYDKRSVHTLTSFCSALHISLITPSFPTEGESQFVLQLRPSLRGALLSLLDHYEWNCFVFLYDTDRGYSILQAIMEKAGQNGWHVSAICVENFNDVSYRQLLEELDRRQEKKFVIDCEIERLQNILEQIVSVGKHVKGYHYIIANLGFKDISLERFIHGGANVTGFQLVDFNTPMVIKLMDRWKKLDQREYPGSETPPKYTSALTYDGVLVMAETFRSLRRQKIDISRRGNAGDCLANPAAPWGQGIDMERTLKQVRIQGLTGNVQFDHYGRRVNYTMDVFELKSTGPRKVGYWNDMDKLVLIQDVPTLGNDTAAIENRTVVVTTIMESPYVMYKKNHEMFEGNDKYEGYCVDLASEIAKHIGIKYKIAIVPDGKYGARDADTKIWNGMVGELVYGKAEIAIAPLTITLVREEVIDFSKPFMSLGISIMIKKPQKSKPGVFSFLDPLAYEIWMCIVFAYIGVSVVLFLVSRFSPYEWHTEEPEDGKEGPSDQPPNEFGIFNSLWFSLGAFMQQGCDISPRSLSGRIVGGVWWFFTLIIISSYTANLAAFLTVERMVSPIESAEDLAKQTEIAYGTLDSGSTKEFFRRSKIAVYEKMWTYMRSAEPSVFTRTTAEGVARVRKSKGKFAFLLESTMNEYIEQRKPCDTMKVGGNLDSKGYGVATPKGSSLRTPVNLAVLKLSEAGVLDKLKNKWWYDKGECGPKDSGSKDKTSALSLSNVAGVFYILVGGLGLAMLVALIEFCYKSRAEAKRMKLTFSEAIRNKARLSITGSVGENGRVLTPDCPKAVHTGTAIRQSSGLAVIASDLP

Row | Ki (Glutamate receptor 4) [µM] | IC50 [1] [µM] | Ki (Glutamate NMDA receptor) [µM] | Ki [2] [µM] | Ki (Glutamate receptor 2) [µM] | Ki [3] [µM] | EC50 [4] [µM] | Ki (Glutamate receptor 1) [µM] | IC50 [5] [µM] | Ki (Glutamate receptor 3) [µM] | Structure (SMILES)
1 | 2.35 | > 100 | > 100 | > 100 | 2.93 | 34.2 | 71 | 10 | 6.2 | 3.71 | CC(C)n1nnc(-c2onc(O)c2CC(N)C(=O)O)n1 (centres undefined)
2 |  | > 100 | > 100 |  |  |  |  |  | 27 |  | CCn1nnnc1-c1onc(O)c1CC(N)C(=O)O (centres undefined)
3 |  | > 100 | > 100 |  |  |  | > 1000 |  | 54 |  | Cn1nnnc1-c1onc(O)c1CC(N)C(=O)O (centres undefined)
4 |  | > 100 | > 100 |  |  |  |  |  | > 100 |  | CC(C)n1nnnc1-c1onc(O)c1CC(N)C(=O)O (centres undefined)
5 | 0.0444 | > 100 | > 100 | > 100 | 0.0802 | 2.92 | 3.5 | 0.145 | 0.134 | 0.0448 | CCn1nnc(-c2o[nH]c(=O)c2CC(N)C(=O)O)n1 (centres undefined)
6 |  | > 100 | > 100 |  |  |  |  |  | > 100 |  | CCCn1nnnc1-c1onc(O)c1CC(N)C(=O)O (centres undefined)
7 | 0.732 | > 100 | > 100 | > 100 | 1.61 | 5.45 | 32 | 5.15 | 2.5 | 1.18 | CCCn1nnc(-c2onc(O)c2CC(N)C(=O)O)n1 (centres undefined)

Row | Structure (SMILES) | Ki (Glutamate receptor 4) [µM] | IC50 [1] [µM] | Ki (Glutamate NMDA receptor) [µM] | Ki [2] [µM] | Ki (Glutamate receptor 2) [µM] | Ki [3] [µM] | EC50 [4] [µM] | Ki (Glutamate receptor 1) [µM] | IC50 [5] [µM] | Ki (Glutamate receptor 3) [µM]
8 | Cn1nnc(-c2o[nH]c(=O)c2C[C@H](N)C(=O)O)n1 |  |  | > 1000 | 18.8 |  | 0.081 |  |  | 0.009 | 
9 | Cn1nnc(-c2onc(O)c2CC(N)C(=O)O)n1 (racemic) |  |  | > 100 |  |  |  |  |  | 0.027 | 
